Tests used:
[1] = target: GDP-bound NRAS wild-type protein (Homo sapiens, UniProt P01111); assay: Binding to NRAS by surface plasmon resonance (SPR), Single Cycle Kinetics; conditions: SPR, GDP-bound NRAS wild-type vs GDP-bound KRAS wild-type
[2] = target: GDP-bound HRAS wild-type protein (Homo sapiens, UniProt P01112); assay: Binding to HRAS by surface plasmon resonance (SPR), Single Cycle Kinetics; conditions: SPR, GDP-bound HRAS wild-type vs GDP-bound KRAS wild-type
GDP-bound HRAS wild-type protein, sequence (P01112 whole entry): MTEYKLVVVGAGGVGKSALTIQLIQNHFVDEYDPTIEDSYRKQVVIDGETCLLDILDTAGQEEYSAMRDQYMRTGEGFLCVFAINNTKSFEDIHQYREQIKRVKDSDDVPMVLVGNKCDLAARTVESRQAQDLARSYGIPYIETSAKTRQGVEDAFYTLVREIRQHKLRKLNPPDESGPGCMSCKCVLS

GDP-bound NRAS wild-type protein, sequence (P01111 whole entry): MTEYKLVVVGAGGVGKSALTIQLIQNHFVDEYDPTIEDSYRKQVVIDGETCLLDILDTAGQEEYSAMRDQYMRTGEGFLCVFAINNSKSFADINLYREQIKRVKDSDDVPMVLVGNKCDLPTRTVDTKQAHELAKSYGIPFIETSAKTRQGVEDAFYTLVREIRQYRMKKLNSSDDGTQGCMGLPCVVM

Row | Structure (SMILES) | NRAS/KRAS (ratio of KD value with respect to NRAS to KD value with respect to KRAS) [1] | HRAS/KRAS (ratio of KD value with respect to HRAS to KD value with respect to KRAS) [2]
1 | CCO[C@@H]1C[C@H]2C(=O)NC3(CC(C)(C)C3)C(=O)N(C)[C@@H](C(CC)CC)C(=O)N(C)[C@H](C(=O)N(C)C)CC(=O)N(C)[C@@H](CC3CCC3)C(=O)N[C@@H]([C@@H](C)CC)C(=O)N(C)CC(=O)N(C)[C@H]3C/C=C\CCN(C3=O)[C@@H](Cc3ccc(C(F)(F)F)cc3)C(=O)N(C)CC(=O)N[C@@H](CCc3ccc(C(F)(F)F)c(OC)c3)C(=O)N2C1 [PP2164] | A (a compound having 10 or more and less than 20 is denoted as A) | A (a compound having 10 or more and less than 20 is denoted as A)
2 | CCO[C@@H]1C[C@H]2C(=O)NC3(CC(C)(C)C3)C(=O)N(C)[C@@H](C(CC)CC)C(=O)N(C)[C@H](C(=O)N(C)C)CC(=O)N(C)[C@@H](C(C)C)C(=O)N[C@@H]([C@@H](C)CC)C(=O)N(C)CC(=O)N(C)[C@H]3C/C=C\CCN(C3=O)[C@@H](Cc3ccc(C(F)(F)F)cc3)C(=O)N(C)CC(=O)N[C@@H](CCc3ccc(C(F)(F)F)c(OC)c3)C(=O)N2C1 [PP2165] | A (a compound having 10 or more and less than 20 is denoted as A) | A (a compound having 10 or more and less than 20 is denoted as A)
3 | CCO[C@@H]1C[C@H]2C(=O)NC3(CC(C)(C)C3)C(=O)N(C)[C@@H](C(CC)CC)C(=O)N(C)[C@H](C(=O)N(C)C)CC(=O)N(C)[C@@H](CC3CC3)C(=O)N[C@@H]([C@@H](C)CC)C(=O)N(C)CC(=O)N(C)[C@H]3C/C=C\CCN(C3=O)[C@@H](Cc3ccc(C)cc3)C(=O)N(C)CC(=O)N[C@@H](CCc3ccc(C(F)(F)F)c(OC)c3)C(=O)N2C1 [PP2166] | A (a compound having 10 or more and less than 20 is denoted as A) | A (a compound having 10 or more and less than 20 is denoted as A)
4 | CCO[C@@H]1C[C@H]2C(=O)NC3(CC(C)(C)C3)C(=O)N(C)[C@@H](C(CC)CC)C(=O)N(C)[C@H](C(=O)N3CCCC3)CC(=O)N(C)[C@@H](COC)C(=O)N[C@@H]([C@@H](C)CC)C(=O)N(C)CC(=O)N(C)[C@H]3C/C=C\CCN(C3=O)[C@@H](Cc3ccc(C)cc3)C(=O)N(C)CC(=O)N[C@@H](CCc3ccc(C(F)(F)F)c(OC)c3)C(=O)N2C1 [PP2167] | AA (a compound having 20 or more is denoted as AA) | A (a compound having 10 or more and less than 20 is denoted as A)
5 | CCO[C@@H]1C[C@H]2C(=O)NC3(CC(C)(C)C3)C(=O)N(C)[C@@H](C(CC)CC)C(=O)N(C)[C@H](C(=O)N(C)C)CC(=O)N(C)[C@@H](CC(C)C)C(=O)N[C@@H]([C@@H](C)CC)C(=O)N(C)CC(=O)N(C)[C@H]3C/C=C\CCN(C3=O)[C@@H](Cc3ccc(C)cc3)C(=O)N(C)CC(=O)N[C@@H](CCc3ccc(C(F)(F)F)c(OC)c3)C(=O)N2C1 [PP2168] | A (a compound having 10 or more and less than 20 is denoted as A) | A (a compound having 10 or more and less than 20 is denoted as A)
6 | CCO[C@@H]1C[C@H]2C(=O)NC3(CC(C)(C)C3)C(=O)N(C)[C@@H](C(CC)CC)C(=O)N(C)[C@H](C(=O)N3CCCC3)CC(=O)N(C)[C@@H](C)C(=O)N[C@@H]([C@@H](C)CC)C(=O)N(C)CC(=O)N(C)[C@H]3C/C=C\CCN(C3=O)[C@@H](Cc3ccc(C)cc3)C(=O)N(C)CC(=O)N[C@@H](CCc3ccc(C(F)(F)F)c(OC)c3)C(=O)N2C1 [PP2169] | AA (a compound having 20 or more is denoted as AA) | A (a compound having 10 or more and less than 20 is denoted as A)
7 | CCO[C@@H]1C[C@H]2C(=O)NC3(CC(C)(C)C3)C(=O)N(C)[C@@H](C(CC)CC)C(=O)N(C)[C@H](C(=O)N(C)C)CC(=O)N(C)[C@@H](CC)C(=O)N[C@@H]([C@@H](C)CC)C(=O)N(C)CC(=O)N(C)[C@H]3C/C=C\CCN(C3=O)[C@@H](Cc3ccc(C)cc3)C(=O)N(C)CC(=O)N[C@@H](CCc3ccc(C(F)(F)F)c(OC)c3)C(=O)N2C1 [PP2170] | A (a compound having 10 or more and less than 20 is denoted as A) | A (a compound having 10 or more and less than 20 is denoted as A)
8 | CCO[C@@H]1C[C@H]2C(=O)NC3(CC(C)(C)C3)C(=O)N(C)[C@@H](C(CC)CC)C(=O)N(C)[C@H](C(=O)N3CCCC3)CC(=O)N(C)[C@@H](CC)C(=O)N[C@@H]([C@@H](C)CC)C(=O)N(C)CC(=O)N(C)[C@H]3C/C=C\CCN(C3=O)[C@@H](Cc3ccc(C)cc3)C(=O)N(C)CC(=O)N[C@@H](CCc3ccc(C(F)(F)F)c(OC)c3)C(=O)N2C1 [PP2171] | A (a compound having 10 or more and less than 20 is denoted as A) | A (a compound having 10 or more and less than 20 is denoted as A)
9 | CCO[C@@H]1C[C@H]2C(=O)NC3(CC(C)(C)C3)C(=O)N(C)[C@@H](C(CC)CC)C(=O)N(C)[C@H](C(=O)N(C)C)CC(=O)N(C)[C@@H](CC3CCC3)C(=O)N[C@@H]([C@@H](C)CC)C(=O)N(C)CC(=O)N(C)[C@H]3C/C=C\CCN(C3=O)[C@@H](Cc3ccc(C)cc3)C(=O)N(C)CC(=O)N[C@@H](CCc3ccc(C(F)(F)F)c(OC)c3)C(=O)N2C1 [PP2172] | A (a compound having 10 or more and less than 20 is denoted as A) | B (a compound having 3 or more and less than 10 is denoted as B)
10 | CCO[C@@H]1C[C@H]2C(=O)NC3(CC(C)(C)C3)C(=O)N(C)[C@@H](C(CC)CC)C(=O)N(C)[C@H](C(=O)N(C)C)CC(=O)N(C)[C@@H](C(C)C)C(=O)N[C@@H]([C@@H](C)CC)C(=O)N(C)CC(=O)N(C)[C@H]3C/C=C\CCN(C3=O)[C@@H](Cc3ccc(C)cc3)C(=O)N(C)CC(=O)N[C@@H](CCc3ccc(C(F)(F)F)c(OC)c3)C(=O)N2C1 [PP2173] | A (a compound having 10 or more and less than 20 is denoted as A) | A (a compound having 10 or more and less than 20 is denoted as A)
11 | CCO[C@@H]1C[C@H]2C(=O)NC3(CC(C)(C)C3)C(=O)N(C)[C@@H](C(CC)CC)C(=O)N(C)[C@H](C(=O)N3CCCC3)CC(=O)N(C)[C@@H](COC)C(=O)N[C@@H]([C@@H](C)CC)C(=O)N(C)CC(=O)N(C)[C@H]3C/C=C\CCN(C3=O)[C@@H](Cc3ccc(C(F)(F)F)cc3)C(=O)N(C)CC(=O)N[C@@H](CCc3ccc(Cl)c(Cl)c3)C(=O)N2C1 [PP2174] | AA (a compound having 20 or more is denoted as AA) | A (a compound having 10 or more and less than 20 is denoted as A)
12 | CCC[C@H]1C(=O)N[C@@H]([C@@H](C)CC)C(=O)N(C)CC(=O)N(C)[C@H]2C/C=C\CCN(C2=O)[C@@H](Cc2ccc(C(F)(F)F)cc2)C(=O)N(C)CC(=O)N[C@@H](CCc2ccc(Cl)c(Cl)c2)C(=O)N2C[C@H](OCC)C[C@H]2C(=O)NC2(CC(C)(C)C2)C(=O)N(C)[C@@H](C(CC)CC)C(=O)N(C)[C@H](C(=O)N(C)C)CC(=O)N1C [PP2175] | AA (a compound having 20 or more is denoted as AA) | A (a compound having 10 or more and less than 20 is denoted as A)
13 | CCO[C@@H]1C[C@H]2C(=O)NC3(CC(C)(C)C3)C(=O)N(C)[C@@H](C(CC)CC)C(=O)N(C)[C@H](C(=O)N(C)C)CC(=O)N(C)[C@@H](CC(C)C)C(=O)N[C@@H]([C@@H](C)CC)C(=O)N(C)CC(=O)N(C)[C@H]3C/C=C\CCN(C3=O)[C@@H](Cc3ccc(C(F)(F)F)cc3)C(=O)N(C)CC(=O)N[C@@H](CCc3ccc(Cl)c(Cl)c3)C(=O)N2C1 [PP2176] | AA (a compound having 20 or more is denoted as AA) | A (a compound having 10 or more and less than 20 is denoted as A)
14 | CCO[C@@H]1C[C@H]2C(=O)NC3(CC(C)(C)C3)C(=O)N(C)[C@@H](C(CC)CC)C(=O)N(C)[C@H](C(=O)N3CCCC3)CC(=O)N(C)[C@@H](C)C(=O)N[C@@H]([C@@H](C)CC)C(=O)N(C)CC(=O)N(C)[C@H]3C/C=C\CCN(C3=O)[C@@H](Cc3ccc(C(F)(F)F)cc3)C(=O)N(C)CC(=O)N[C@@H](CCc3ccc(Cl)c(Cl)c3)C(=O)N2C1 [PP2178] | AA (a compound having 20 or more is denoted as AA) | A (a compound having 10 or more and less than 20 is denoted as A)
15 | CCO[C@@H]1C[C@H]2C(=O)NC3(CC(C)(C)C3)C(=O)N(C)[C@@H](C(CC)CC)C(=O)N(C)[C@H](C(=O)N(C)C)CC(=O)N(C)[C@@H](CC)C(=O)N[C@@H]([C@@H](C)CC)C(=O)N(C)CC(=O)N(C)[C@H]3C/C=C\CCN(C3=O)[C@@H](Cc3ccc(C(F)(F)F)cc3)C(=O)N(C)CC(=O)N[C@@H](CCc3ccc(Cl)c(Cl)c3)C(=O)N2C1 [PP2179] | AA (a compound having 20 or more is denoted as AA) | A (a compound having 10 or more and less than 20 is denoted as A)

Source: US20250230193A1, “CYCLIC COMPOUND HAVING SELECTIVE KRAS INHIBITORY EFFECT ON HRAS AND NRAS” (CHUGAI SEIYAKU KABUSHIKI KAISHA, priority 2022, published 2025)
